Source: ChEMBL document CHEMBL1177687, “Synthesis and CYP24A1 inhibitory activity of N-(2-(1H-imidazol-1-yl)-2-phenylethyl)arylamides” (Bioorg Med Chem, 2010)

The compounds below were run against T1, 1,25-dihydroxyvitamin D(3) 24-hydroxylase, mitochondrial (Homo sapiens, UniProt Q07973) (assay: Inhibition of CYP24A1).
T1 sequence (Q07973 whole entry): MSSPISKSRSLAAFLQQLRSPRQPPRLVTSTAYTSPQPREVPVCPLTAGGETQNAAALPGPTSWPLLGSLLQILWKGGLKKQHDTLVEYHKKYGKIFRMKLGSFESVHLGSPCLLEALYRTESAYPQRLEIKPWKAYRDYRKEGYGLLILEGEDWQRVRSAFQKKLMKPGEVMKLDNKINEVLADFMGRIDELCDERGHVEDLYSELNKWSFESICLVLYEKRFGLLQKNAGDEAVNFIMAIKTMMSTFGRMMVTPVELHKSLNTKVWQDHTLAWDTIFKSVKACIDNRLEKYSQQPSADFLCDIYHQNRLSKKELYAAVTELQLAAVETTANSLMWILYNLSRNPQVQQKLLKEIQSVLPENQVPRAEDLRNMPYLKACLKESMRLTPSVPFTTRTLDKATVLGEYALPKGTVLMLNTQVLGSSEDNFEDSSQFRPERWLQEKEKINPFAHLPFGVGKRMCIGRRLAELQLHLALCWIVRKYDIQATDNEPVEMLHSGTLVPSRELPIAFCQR
Assay type: ADME
In the case of `O=C(NC[C@@H](c1ccccc1)n1ccnc1)c1ccc(-c2ccc(Cl)cc2)cc1`, the IC50 is reported as 0.0151 µM.

What follows are compounds tested against T1, 1,25-dihydroxyvitamin D(3) 24-hydroxylase, mitochondrial (assay: Inhibition of human recombinant CYP24A1 expressed in chinese hamster V79 cells using [3H-1-beta]calcitriol after 60 mins by scintillation counting).
Assay type: ADME, cell-based
Compound `O=C(NCC(c1ccccc1)n1ccnc1)c1ccc(Br)cc1` (centres undefined) has an IC50 of 23 µM. `O=C(NCC(c1ccccc1)n1ccnc1)c1ccc(/C=C/c2ccccc2)cc1` (centres undefined) was tested, and the IC50 was 0.3 µM. `O=C(NCC(c1ccccc1)n1ccnc1)c1cc2cc([N+](=O)[O-])ccc2o1` (centres undefined) was tested, and the IC50 was 6.4 µM. `O=C(NCC(c1ccc(F)cc1)n1ccnc1)c1cc2ccccc2o1` (centres undefined) gave an IC50 of 2.8 µM. `O=C(NCC(c1ccccc1)n1ccnc1)c1ccc(Cc2ccccc2)cc1` (centres undefined) showed an IC50 of 72 µM. For `O=C(NCC(c1ccc(Cl)cc1)n1ccnc1)c1cc2ccccc2o1` (centres undefined), the IC50 was 10.6 µM. In the case of `COc1ccc2cc(C(=O)NCC(c3ccccc3)n3ccnc3)oc2c1` (centres undefined), the IC50 is reported as 36.9 µM. In the case of `O=C(NCC(c1ccccc1)n1ccnc1)c1cc2ccccc2o1` (centres undefined), the IC50 is reported as 4 µM.
